Laboratory results taken from US20250120952A1, “17-Beta-Hydroxysteroid Dehydrogenase Type 13 Inhibitors And Methods Of Use Thereof” (ENANTA PHARMACEUTICALS, INC., priority 2023, published 2025).

Columns and labels:
H441 cells = assay: Collagen / COL1A1 mRNA in H441 cells; assay type: cell-based, human; conditions: H441 (high HSD17B13), +/-TGFB1 10 ng/mL, inhibitor 3 uM, 24 hours; effect only in H441, not in A549 (low HSD17B13) (FIG. 11)
Description: (§1) Human lung cancer cell lines with high (H441) or low (A549) expression of HSD17B13, as confirmed by western blot, were acquired from ATCC and maintained according to manufacturer's instructions. Cells were seeded at a confluency of 2e5 cells/well (A549) or 4e5 cells/well (H441) in a 6-well format. Once cells were 70% confluent, media was removed and replenished with starvation media for 24 hours. Afterward starvation media was removed and replenished with treatment media for 24 hours. Compound 348 and Compound 812 were used as HSD17B13 inhibitors. For gene expression analysis, treatment media consisted of +/−TGFB1 (10 ng/mL) and +/−HSD17B13 inhibitor (3 uM). For HSD17B13 enzymatic activity, treatment media consisted of +/−d2-Estradiol (Cayman Chemicals) and +/−HSD17B13 inhibitor (0.3 uM, 1 uM, 3 uM); supernatants were collected to measure estradiol conversion to estrone by rapid fire mass spectrometry.

HSD17B13 = biological target: T1, HSD17B13 (Homo sapiens, UniProt Q7Z5P4); assay: HSD17B13 enzymatic activity in H441 cells (estradiol conversion to estrone, rapid fire mass spectrometry); assay type: cell-based; conditions: H441 (high HSD17B13), inhibitor 0.3 uM, 1 uM, 3 uM, 24 hours; effect only in H441, not in A549 (low HSD17B13) (FIG. 10)
T1 construct: Human lung cancer cell lines with high (H441) or low (A549) expression of HSD17B13, as confirmed by western blot; host or cells: H441 human lung cancer cell line
T1 sequence (Q7Z5P4 20-300): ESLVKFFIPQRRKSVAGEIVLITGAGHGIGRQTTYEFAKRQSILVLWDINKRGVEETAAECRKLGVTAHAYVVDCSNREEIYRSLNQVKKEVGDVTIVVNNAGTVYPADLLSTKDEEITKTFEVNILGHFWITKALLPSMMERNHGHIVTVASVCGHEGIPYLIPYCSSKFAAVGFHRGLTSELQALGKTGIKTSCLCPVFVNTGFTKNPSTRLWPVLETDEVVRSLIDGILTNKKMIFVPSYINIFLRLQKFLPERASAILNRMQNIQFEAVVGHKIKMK
Description: as §1

## COc1cc(C(=O)O)ccc1NS(=O)(=O)c1csc(-c2ccc(C3CCC(C(F)(F)F)CC3)cc2)n1 (centres unmarked) [Compound 348]
H441 cells
  COL1A1 (Collagen): decreased
HSD17B13
  enzymatic activity (d2-estradiol conversion to estrone): decreased
